Measurements published in patent US20220023389A1, “VASODILATORS FOR USE IN THE TREATMENT OF A RETINAL ISCHEMIC DISORDER” (University of Copenhagen, priority 2018, published 2022).
Where no end group is shown, it is not given here.

Assays:
[1] = test system: retina (photoreceptors, bipolar cells); test: Electroretinography (scotopic A-wave and B-wave amplitude) after ET-1 induced retinal ischemia; format: in vivo, Sprague dawley rat; conditions: day 21, ET-1 induced ischemia right eye (5 μL 500 μM), ET-1 alone/vehicle
Method: Rats were anesthetized with 90 mg/kg ketamine & 10 mg/kg xylazine (i.p). Oxybuprocain 0.4% Anesthetic was applied topically to the eyes.
Guided under a stereoscopic microscope to avoid lens and retinal injury, 5 μl intravitreal injection of 500 uM ET-1 (Phoenix Pharmaceuticals, Inc.) was performed using a digital controller and UltraMicroPump III, with NanoFil 10 μl syringe (WPI) connected to intraoucular injector with a 34 g bevelled needle.
Injection was performed through the sclera, inserted approximately 1 mm posterior to the corneal limbus at a 45° angle to avoid contact with the lens capsule and direct the contents, 1.5 mm into the vitreous chamber, in the right eye (FIG. 1). The needle remained in the vitreous cavity for 30 seconds after injection and was then gently withdrawn. […]
Day 0—ET-1 is administered intravitreally alone or in combination with the current invention. Fundus is recorded before and after injection. […]
After overnight dark adaptation for at least 12 hours, the animals were anesthetized with 90 mg/kg ketamine and 10 mg/kg xylazine delivered by a single intraperitoneal injection. […] ERGs were recorded from both eyes simultaneously with a gold wire electrode loops, placed on the corneal apex, with a drop of saline applied to the corneal surface for hydration during the testing procedure. […] The scotopic A-wave amplitude and B-wave amplitude were recorded and evaluated.

[2] = target: calcitonin receptor-like receptor (CLR) in complex with receptor activity-modifying protein 1 (RAMP1) (Homo sapiens, UniProt O60894+Q16602); conditions: removal of residues 1-7; cited from earlier work
Sequence of calcitonin receptor-like receptor (CLR) in complex with receptor activity-modifying protein 1 (RAMP1) (Q16602 23-461): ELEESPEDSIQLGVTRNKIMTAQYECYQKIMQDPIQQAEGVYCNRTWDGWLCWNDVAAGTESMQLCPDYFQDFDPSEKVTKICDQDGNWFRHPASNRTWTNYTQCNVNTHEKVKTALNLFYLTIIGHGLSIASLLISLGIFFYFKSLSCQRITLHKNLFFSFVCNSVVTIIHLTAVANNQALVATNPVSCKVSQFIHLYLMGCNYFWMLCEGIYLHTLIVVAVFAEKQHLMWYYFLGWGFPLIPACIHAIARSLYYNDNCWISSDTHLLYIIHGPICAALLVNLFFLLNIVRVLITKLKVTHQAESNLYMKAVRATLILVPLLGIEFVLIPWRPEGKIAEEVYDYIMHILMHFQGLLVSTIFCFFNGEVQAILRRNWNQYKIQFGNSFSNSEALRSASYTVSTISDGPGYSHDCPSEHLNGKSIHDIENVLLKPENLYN
Sequence of calcitonin receptor-like receptor (CLR) in complex with receptor activity-modifying protein 1 (RAMP1) (O60894 27-148): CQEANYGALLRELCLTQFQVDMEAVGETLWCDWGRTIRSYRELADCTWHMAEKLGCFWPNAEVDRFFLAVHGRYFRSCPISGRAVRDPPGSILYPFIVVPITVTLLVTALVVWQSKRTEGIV

| Substance | avg. max A-wave amplitude [1] | avg. max B-wave amplitude [1] | binding potency relative to CGRP (less potent) [2] | efficacy [2] |
| --- | --- | --- | --- | --- |
| Endothelin-1 (CSCSSLMDKECVYFCHLDIIW; ends and bridges not checked; cysteine pairing not given here; UniProt P05305 53-73, looked up) [ET-1, vasoconstrictive peptide injected intravitreally to induce retinal ischemia] | 457±40 μV | 804±188 μV |  |  |
| CGRP8-37 |  |  | approximately 10 fold | lost all efficacy |
